We go through three compounds from patent EP3811940B1, “SUBSTITUTED 4,5'-BITHIAZOLES AS INHIBITORS OF THE HUMAN DNA TOPOISOMERASE II” (Kemijski Institut, priority 2019, dated 2021).

Experiment [1] concerns the target T1, human topo IIα ATPase domain (Homo sapiens, UniProt P11388).
T1 construct: The ATPase fragment with 1-453 amino acid residues was purchase from Inspiralis; purchased Inspiralis
Nature of the experiment: microscale thermophoresis (MST) binding. The conditions noted are these: three independent runs; initial fluorescence; labelled protein 20 nM. The text has this:
Figure 2. […] The graph shown is representative of two independent experiments.
A general note: Microscale thermophoresis detects binding through changes in fluorescence in a small temperature gradient.

The target of experiment [2] is T2, human topo IIα (Homo sapiens, UniProt P11388).
T2 construct: purchased Inspiralis (Norwich, UK)
T2 sequence (P11388 whole entry): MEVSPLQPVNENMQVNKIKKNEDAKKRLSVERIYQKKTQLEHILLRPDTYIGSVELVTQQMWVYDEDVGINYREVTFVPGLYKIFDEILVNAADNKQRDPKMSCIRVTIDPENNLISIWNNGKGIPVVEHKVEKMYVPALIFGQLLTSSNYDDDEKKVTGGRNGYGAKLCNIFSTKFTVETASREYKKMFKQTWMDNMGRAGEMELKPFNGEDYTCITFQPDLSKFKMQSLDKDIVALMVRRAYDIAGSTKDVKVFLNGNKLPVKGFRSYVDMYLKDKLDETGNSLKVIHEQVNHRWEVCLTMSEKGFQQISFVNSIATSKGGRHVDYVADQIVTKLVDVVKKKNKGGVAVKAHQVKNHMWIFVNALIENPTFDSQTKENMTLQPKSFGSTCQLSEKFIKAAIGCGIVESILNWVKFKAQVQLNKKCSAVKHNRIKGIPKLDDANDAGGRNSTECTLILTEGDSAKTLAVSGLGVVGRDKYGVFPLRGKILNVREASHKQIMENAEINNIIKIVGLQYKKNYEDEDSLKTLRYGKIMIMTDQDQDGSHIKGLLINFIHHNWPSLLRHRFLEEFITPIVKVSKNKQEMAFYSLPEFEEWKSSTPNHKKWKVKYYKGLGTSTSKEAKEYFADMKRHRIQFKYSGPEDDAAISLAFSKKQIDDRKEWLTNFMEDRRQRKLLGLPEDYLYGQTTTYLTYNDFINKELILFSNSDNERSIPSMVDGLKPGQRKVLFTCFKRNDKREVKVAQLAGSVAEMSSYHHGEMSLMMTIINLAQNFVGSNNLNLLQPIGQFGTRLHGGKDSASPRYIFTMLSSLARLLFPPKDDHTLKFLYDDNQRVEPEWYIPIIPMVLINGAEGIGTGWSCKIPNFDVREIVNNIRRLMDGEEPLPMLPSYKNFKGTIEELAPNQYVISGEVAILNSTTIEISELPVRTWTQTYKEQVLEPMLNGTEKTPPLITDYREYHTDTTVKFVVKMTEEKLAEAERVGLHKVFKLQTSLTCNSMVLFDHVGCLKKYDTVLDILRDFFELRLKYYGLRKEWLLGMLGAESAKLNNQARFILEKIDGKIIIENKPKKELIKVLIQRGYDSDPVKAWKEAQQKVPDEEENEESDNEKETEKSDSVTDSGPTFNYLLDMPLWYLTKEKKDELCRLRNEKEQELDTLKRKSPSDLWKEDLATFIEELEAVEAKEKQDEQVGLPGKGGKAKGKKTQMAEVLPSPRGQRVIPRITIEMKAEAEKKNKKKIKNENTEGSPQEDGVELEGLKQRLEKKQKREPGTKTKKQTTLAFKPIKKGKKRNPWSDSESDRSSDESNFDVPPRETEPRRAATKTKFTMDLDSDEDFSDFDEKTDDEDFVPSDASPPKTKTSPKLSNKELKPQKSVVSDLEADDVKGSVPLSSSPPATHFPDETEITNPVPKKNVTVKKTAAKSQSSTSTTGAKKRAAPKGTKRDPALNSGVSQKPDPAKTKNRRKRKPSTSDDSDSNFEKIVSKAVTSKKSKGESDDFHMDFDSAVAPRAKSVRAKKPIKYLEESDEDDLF
The experiment can be described thus: ATP hydrolysis (ATPase) assay coupled to NADH oxidation. The experiment is classed as biochemical. As for the experimental part: To investigate if our compounds can inhibit the ATP hydrolysis, catalysed by human topo IIα, first ATP hydrolysis assay was performed for compound 1. This assay is coupled to the oxidation of NADH, which was indicated by the decrease of optical density at 340 nm. Etoposide was used as a control compound.
Compounds were analyzed using a linked assay in which the ADP produced by the hydrolysis of ATP leads to conversion of NADH to NAD by a pyruvate kinase/lactate dehydrogenase mix. The disappearance of NADH is monitored at 340 nm. A mix of assay buffer (5 µL of 10X buffer per assay: final conc. 20 mM Tris-HCl, 5 mM magnesium acetate, 125 mM potassium acetate, 2 mM DTT, pH 7.9), linear pBR322 (1.5 µL of 1mg/mL per assay), phosphoenol pyruvate (0.5 µL of 80 mM per assay), pyruvate kinase/lactate dehydrogenase mix (0.75 µL per assay), NADH (1 µL of 20 mM per assay) and water (34.35 µL per assay) was made. 41.1 µL was aliquoted into the wells of a 384-well microtitre plate. […] 5 µL of the dilution buffer or human topo IIα (200 nM stock giving 12 nM final concentration) were then added and mixed. The change in OD340 was then measured in a plate reader over a period of about 10 minutes (called the prerun). 3.4 µL of 30 mM ATP was then added and the OD340 monitored for up to 30 minutes. Assays were performed at 37 °C. The final DMSO concentration in all the reactions was 1 % (v/v). Assays were performed at 3.9, 31.5, 125, and 500 µM final concentrations of the investigated compound 1. Compound were serially diluted in DMSO and added to the reaction before the addition of the enzyme. Control compound for was Etoposide. Determination if compound 1 from class of substituted 4,5'-bithiazoles inhibits ATPase activity of human topo II enzyme was performed in collaboration with Inspiralis.

In experiment [3] the target is T2, human topo IIα. The experiment can be described thus: kDNA decatenation assay catalysed by human topo IIα. It is filed as biochemical. The conditions noted are these: for % Decatenated Assay 1 / % Decatenated Assay 2: % of decatenated kDNA; for % Decatenated Average: average of two assays. As for the experimental part: One U of human topo II (α or β) was incubated with 200 ng kDNA in a 30 µL reaction at 37°C for 30 minutes under the following conditions: 50 mM Tris HCl (pH 7.5), 125 mM NaCl, 10 mM MgCl2, 5 mM DTT, 0.5 mM EDTA, 0.1 mg/ml bovine serum albumin (BSA) and 1 mM ATP. Compounds 1 and 9 were serially diluted in DMSO and added to the reaction mixture before the addition of the enzyme. […] Each reaction was then stopped by the addition of 30 µL chloroform/iso-amyl alcohol ([…]) and 30 µL Stop Dye (40 % sucrose (w/v), 100 mM Tris.HCl (pH 7.5), 10 mM EDTA, 0.5 µg/mL bromophenol blue), before being loaded on a 1% TAE gel run at 85 V for 90 minutes. Assays were performed at 4 concentrations of ligand: 3.9, 31.5, 125 and 500 µM. The final DMSO concentration in all reactions was 1 % (v/v).
Bands were visualized by the ethidium bromide staining for 15 minutes and destaining for subsequent 10 minutes. Gels were scanned using the documentation equipment (GeneGenius, Syngene, Cambridge, UK) and inhibition levels were calculated from band data obtained with gel scanning software (GeneTools, Syngene, Cambridge,UK). Experiment was performed in duplicates for all compounds.

Experiment [4] deals with T2, human topo IIα. Nature of the experiment: HTS relaxation assay of human topo IIα. It is filed as biochemical. The conditions noted are these: screening at 7.8, 31.5, 125 and 500 µM. As for the experimental part: The 14 selected compounds from the class of substituted 4,5'-bithiazoles were experimentally assayed if they inhibit catalytic activity of human topo IIα using an established high-throughput screening (HTS) relaxation assay for human topo IIα [24].
The HTS assays primarily served to select compounds for further evaluation.
Plate was rehydrated using wash buffer (20 mM Tris-HCl (pH = 7.6), 137 mM NaCl, 0.005 % (w/v) BSA, 0.05 % (v/v) TWEEN-20®) and biotinylated oligonucleotide was immobilized onto the wells. Next, the excess oligonucleotide was washed off with wash buffer. Enzyme assay was carried out in reaction volume of 30 µL using 0.75 µg supercoiled plasmid pNO1 as a substrate and human topo IIα. Enzyme was diluted to the appropriate concentration with dilution buffer comprised of 50 mM Tris-Hcl (pH = 7.5), 100 mM NaCl, 1 mM DTT, 0.5 mM EDTA, 50 % (v/v) glycerol and 50 µg/mL albumin. Tested compounds (0.3 µL) were added as a stock solution in DMSO and final concentration of DMSO was 1 %, respectively. Reactions were incubated at 37 °C for 30 min, and TF buffer (50 mM NaOAc (pH = 5.0), 50 mM NaCl, 50 mM MgCl2) was added to the wells and incubated at room temperature for additional 30 min to allow the triplex biotin-oligonucleotid-plasmid formation. To eliminate the aggregation and non-specific inhibition a surfactant (TWEEN-20®) was added to the reaction mixture. Unbound plasmid was washed off with TF buffer and stained with the DNA-detection Dye in the T10 buffer (10 mM Tris-HCl (pH = 8) and 1 mM EDTA) was added. After mixing, fluorescence was read using Tecan fluorimeter (Excitation: 485 nm and Emission: 535 nm). Screening was performed at the inhibitor concentrations of 7.8, 31.5, 125 and 500 µM. IC50 values were calculated using GraphPad Prism 6.0 software and represent the concentrations of inhibitors where residual activity of the enzyme was 50 % [24].

T1 sequence (P11388 1-453): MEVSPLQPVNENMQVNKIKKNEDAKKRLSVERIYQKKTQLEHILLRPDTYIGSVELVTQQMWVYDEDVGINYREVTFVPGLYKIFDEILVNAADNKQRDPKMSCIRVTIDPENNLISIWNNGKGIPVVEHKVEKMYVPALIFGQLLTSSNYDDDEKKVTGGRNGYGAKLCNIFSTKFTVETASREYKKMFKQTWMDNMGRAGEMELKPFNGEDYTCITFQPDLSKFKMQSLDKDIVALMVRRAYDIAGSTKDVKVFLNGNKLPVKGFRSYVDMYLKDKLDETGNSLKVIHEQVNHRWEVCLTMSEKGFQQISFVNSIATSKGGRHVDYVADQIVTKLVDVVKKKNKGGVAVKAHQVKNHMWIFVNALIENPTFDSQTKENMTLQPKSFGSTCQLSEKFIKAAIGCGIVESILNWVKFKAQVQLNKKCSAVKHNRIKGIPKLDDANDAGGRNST

In general, Kd refers to the equilibrium constant for the complex coming apart. What is called inhibition is the share of the control response that was lost under treatment. High values mean a response far below the control, low ones a response near the control. In general, IC50 refers to the concentration that gives 50% inhibition. High values mean weaker potency in that assay, low ones greater potency in that assay. In experiment [1], `Cc1nc(N)sc1-c1csc(Nc2ccc(C(F)(F)F)cc2)n1` [Compound 1, 4'-methyl-N2-(4-(trifluoromethyl)phenyl)-[4,5'-bithiazole]-2,2'-diamine] gave a Kd of 50.6 ± 7.6 µM. Further, the inhibition at 125 µM at human topo IIα [2] (first parallel) was 75%; against human topo IIα [2] (second parallel), 85%. In addition, the “% Decatenated Assay 1” value on human topo IIα [3] (3.9 µM) was found to be 100%; on human topo IIα [3] (31.5 µM), 72.4%; at human topo IIα [3] (125 µM), 0%; at human topo IIα [3] (500 µM) it was 0%. The “% Decatenated Assay 2” value is recorded as 91% on human topo IIα [3] (3.9 µM), 89.4% on human topo IIα [3] (31.5 µM), 0% at human topo IIα [3] (125 µM) and 0% at human topo IIα [3] (500 µM). The “% Decatenated Average” value on human topo IIα [3] (3.9 µM) came to 95.5%; on human topo IIα [3] (31.5 µM), 80.5%; at human topo IIα [3] (125 µM) it was 0%; on human topo IIα [3] (500 µM), 0%. In addition, at human topo IIα [3] (31.5 µM), at 31.5 µM the inhibition was 19.1%. The “% of inhibition of decatenation” value at human topo IIα [3] (125 µM) and on human topo IIα [3] (500 µM) was “full inhibition” each time. Also, at human topo IIα [4], the IC50 was found to be 33.4 µM.

Turning to `CC(=O)Nc1ccc(Nc2nc(-c3sc(NC(C)=O)nc3C)cs2)cc1` [Compound 9, N-(4-((2'-acetamido-4'-methyl-[4,5'-bithiazol]-2-yl)amino)phenyl)acetamide], on human topo IIα [3] (3.9 µM), the “% Decatenated Assay 1” value is reported as 98.7%, the “% Decatenated Assay 2” value is listed as 99.2% and the “% Decatenated Average” value was 98.9%. At human topo IIα [3] (31.5 µM), the “% Decatenated Assay 1” value is on record as 99.4%, the “% Decatenated Assay 2” value worked out at 97.9% and the “% Decatenated Average” value is 98.7%. Besides, at human topo IIα [3] (125 µM), the inhibition at 125 µM was found to be 11.9%, the “% Decatenated Assay 1” value was 89.5%, the “% Decatenated Assay 2” value is reported as 86.7% and the “% Decatenated Average” value is recorded as 88.1%. In addition, at human topo IIα [3] (500 µM), the inhibition at 500 µM was found to be 67.3%, the “% Decatenated Assay 1” value is listed as 34%, the “% Decatenated Assay 2” value was 31.3% and the “% Decatenated Average” value stood at 32.7%. At human topo IIα [4], the IC50 turned out to be 60 µM.

Take `COc1cc([C@@H]2c3cc4c(cc3[C@@H](O[C@@H]3O[C@@H]5CO[C@@H](C)O[C@H]5[C@H](O)[C@H]3O)[C@H]3COC(=O)[C@H]23)OCO4)cc(OC)c1O` [Etoposide, etoposide, reference compound]: the inhibition at 125 µM against human topo IIα [2] (first parallel) is 70%; at human topo IIα [2] (second parallel), 63%.
